Read-outs that look alike come from different tables or passages of the source.
Experiments:
topoisomerase I = molecular target: T1, topoisomerase I (Homo sapiens, UniProt P11387); experiment: Topoisomerase I-mediated DNA cleavage, 3'-end-labeled 161 bp pBluescript SK(-) fragment; format: biochemical; details: Table 2; tested at concentrations ranging up to 10 μM; semi-quantitative relative to compound A
T1 sequence (P11387 1-765): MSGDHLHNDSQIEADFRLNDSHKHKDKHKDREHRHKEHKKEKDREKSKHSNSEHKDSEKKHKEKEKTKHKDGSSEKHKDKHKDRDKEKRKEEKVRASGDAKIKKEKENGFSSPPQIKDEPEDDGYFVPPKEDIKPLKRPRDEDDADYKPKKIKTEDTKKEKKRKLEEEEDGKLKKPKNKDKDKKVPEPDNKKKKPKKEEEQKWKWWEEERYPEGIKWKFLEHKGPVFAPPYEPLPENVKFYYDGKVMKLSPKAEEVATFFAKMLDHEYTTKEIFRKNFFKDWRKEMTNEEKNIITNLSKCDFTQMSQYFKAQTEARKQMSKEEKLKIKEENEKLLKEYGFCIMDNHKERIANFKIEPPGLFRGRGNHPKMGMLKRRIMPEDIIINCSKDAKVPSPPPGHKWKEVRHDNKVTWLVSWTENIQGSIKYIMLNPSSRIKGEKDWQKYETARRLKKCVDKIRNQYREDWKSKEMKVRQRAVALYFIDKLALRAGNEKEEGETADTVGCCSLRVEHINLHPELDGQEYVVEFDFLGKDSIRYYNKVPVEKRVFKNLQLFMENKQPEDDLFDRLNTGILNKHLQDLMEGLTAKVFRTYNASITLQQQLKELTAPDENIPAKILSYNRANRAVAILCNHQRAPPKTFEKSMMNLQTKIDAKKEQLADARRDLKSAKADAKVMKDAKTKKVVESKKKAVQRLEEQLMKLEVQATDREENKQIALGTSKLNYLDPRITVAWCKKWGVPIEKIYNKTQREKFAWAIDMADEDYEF
Experimental: The assays were carried out at room temperature for 30 min and stopped by adding 0.5% SDS. […] Topoisomerase I was present in all reaction mixtures except for the one corresponding to the first lane.
Induction of DNA cleavage.
Labeling reactions were followed by phenol-chloroform extraction and ethanol precipitation. […] Reactions were terminated by adding 0.5% SDS.
DNA Cleavage Semiquantitative Analysis. […] The rubberband baseline correction was applied with band detection sensitivity set at 90.

SF-539 = experiment: COMPARE screening (NCI), GI50 in SF-539
Excerpt: (§1) This in vitro prescreening system is based on the measurement of anticancer cytotoxicity against human cancer cell line panels consisting of approximately 60 cell lines of major human cancers (including leukemia, and slower growing tumor cells such as lung, colon, breast, skin, kidney, etc.) and is referred hereinafter as “COMPARE” screening.
(§2) COMPARE screening. The compounds described herein were examined for antiproliferative activity against the human cancer cell lines in the National Cancer Institute screen (COMPARE screening), in which the activity of each compound was evaluated with approximately 55 different cancer cell lines of diverse tumor origins. […] Therefore, the MGM value represents an overall assessment of toxicity of the compound across numerous cell lines.

[1] = system: all human cancer cell lines successfully tested (approximately 55); experiment: COMPARE screening, mean graph midpoint (MGM); format: cell-based; details: average GI50 over all cell lines tested, values outside 10^-8 to 10^-4 molar taken as the limits, read-out: MGM (mean graph midpoint for growth inhibition); for MGM (mean GI50 across cell lines): Homo sapiens
Excerpt: as §1, §2

DU-145 = experiment: COMPARE screening (NCI), GI50 in DU-145
Excerpt: as §1, §2

HCT-116 = experiment: COMPARE screening (NCI), GI50 in HCT-116
Excerpt: as §1, §2

HOP-62 = experiment: COMPARE screening (NCI), GI50 in HOP-62
Excerpt: as §1, §2

MDA-MB-435 = experiment: COMPARE screening (NCI), GI50 in MDA-MB-435
Excerpt: as §1, §2

SN12C = experiment: COMPARE screening (NCI), GI50 in SN12C
Excerpt: as §1, §2

OVCAR-3 = experiment: COMPARE screening (NCI), GI50 in OVCAR-3; details: OVCAR-3, concentration corresponding to 50% growth inhibition
Excerpt: as §1, §2

UACC-62 = experiment: COMPARE screening (NCI), GI50 in UACC-62
Excerpt: as §1, §2

SR = system: SR
Excerpt: as §1, §2

[2] = Homo sapiens, read-out: Cytotoxicity GI50, CNS SF-539
[3] = Homo sapiens, DU-145, read-out: Cytotoxicity GI50, prostate DU-145, prostate, DU-145, concentration corresponding to 50% growth inhibition
[4] = Homo sapiens, HCT-116, read-out: Cytotoxicity GI50, colon HCT-116, colon, HCT-116, concentration corresponding to 50% growth inhibition
[5] = Homo sapiens, HOP-62, read-out: Cytotoxicity GI50, lung HOP-62, lung, HOP-62, concentration corresponding to 50% growth inhibition
[6] = Homo sapiens, MDA-MB-435, read-out: Cytotoxicity GI50, breast MDA-MB-435, breast, MDA-MB-435, concentration corresponding to 50% growth inhibition
[7] = Homo sapiens, SN12C, read-out: Cytotoxicity GI50, renal SN12C, renal, SN12C, concentration corresponding to 50% growth inhibition
[8] = Homo sapiens, OVCAR-3, read-out: Cytotoxicity GI50, ovarian OVCAR-3, ovarian
[9] = Homo sapiens, UACC-62, read-out: Cytotoxicity GI50, melanoma UACC-62, melanoma, UACC-62, concentration corresponding to 50% growth inhibition

| Top 1 Cleavage (topoisomerase I) | MGM (mean GI50 across cell lines) [1] [nM] | SMILES | GI50 (SF-539; [2]) [nM] | GI50 (DU-145; [3]) [nM] | GI50 (HCT-116; [4]) [nM] | GI50 (HOP-62; [5]) [nM] | GI50 (MDA-MB-435; [6]) [nM] | GI50 (SN12C; [7]) [nM] | GI50 (OVCAR-3; [8]) [nM] | GI50 (UACC-62; [9]) [nM] | GI50 (SR) [nM] | GI50 (SF-539) [nM] | IC50 [1] [nM] | GI50 (DU-145) [nM] | GI50 (HCT-116) [nM] | GI50 (HOP-62) [nM] | GI50 (MDA-MB-435) [nM] | GI50 (SN12C) [nM] | GI50 (OVCAR-3; read-out: Cytotoxicity GI50, ovarian OVCAR-3, ovarian) [nM] | GI50 (UACC-62) [nM] |
| --- | --- | --- | --- | --- | --- | --- | --- | --- | --- | --- | --- | --- | --- | --- | --- | --- | --- | --- | --- | --- |
| + (+, weak activity) | 19100 | COc1cc2c(cc1OC)-c1ncc3cc(OC)c(OC)c(OC)c3c1C2.Cl [Compound 9ca, 1,2,3,8,9-Pentamethoxy-11H-indeno[1,2-c]isoquinoline Hydrochloride] | 14000 | 21700 | 31800 | 34800 | 16200 | 14400 | 15900 | 7420 | – | – | – | – | – | – | – | – | – | – |
| ++ (++, similar activity as compound A) | 2010 | COc1cc2c3c(ncc2c(OC)c1OC)-c1c(ccc2c1OCO2)C3.Cl [Compound 9cb, 2,3,4-Trimethoxy-7,8-methylenedioxy-11H-indeno[1,2-c]isoquinoline Hydrochloride] | 869 | > 100000 | 69.4 | 234 | 178 | 602 | 403 | 439 | – | – | – | – | – | – | – | – | – | – |
| – | – | COc1cc2c[n+](CCCNC(C)=O)c3c(c2cc1OC)C(=O)c1cc2c(cc1-3)OCO2 [Compound 6ab, 2,3-Dimethoxy-6-(3-N-acetylamino-1-propyl)-8,9-(methylenedioxy)-11-oxo-indeno[1,2-c]isoquinolinium Chloride] | – | – | – | – | – | – | – | – | 92.9 | 96.8 | 7960 | 907 | 5080 | 1000 | 466 | 2760 | 12200 | 3430 |
